These results are taken from article PMC10053369, “Recombinant Analogs of Sea Anemone Kunitz-Type Peptides Influence P2X7 Receptor Activity in Neuro-2a Cells” (Marine Drugs, 2023).

Positions of bridges follow the written chain, without caps; N, C: chain ends. No end group written: not given here.

For test [1], the system named is Kv1.1, Kv1.2, Kv1.3 and Kv1.6 isoforms as well as insect Shaker IR. Particulars: range over channels and both peptides, ref [16],[25]; cited from earlier work. The source says:
The studied peptides are analogs of sea anemone Kunitz-type peptides and attract our attention due to their wide spectrum of biological activity and ability to interact with important molecular targets.

For a further test, the system named is P2X7 in Neuro-2a cells. Put plainly: P2X7 immunofluorescence / expression (confocal microscopy). Format: cell-based, mouse. Particulars: 10 μM peptide, 24 h. As for the experimental part:
Neuro-2a cells on coverslips were washed once with PBS, fixed with cold 100% methanol for 5 min in an ice bath, and then washed (3 × 5 min) with PBS. For P2X7 receptor immunocytochemistry, cells were blocked with 10% bovine serum in PBS containing 0.1% Triton X-100 (1 h) and incubated with specific to P2X7 primary antibodies (1:1000; orb35965 Biorbyt Ltd., Cambridge, UK) overnight at 4 °C. Cells were washed with PBS (3 × 10 min) and incubated with Alexa Fluor 594-conjugated goat anti-rabbit secondary antibodies (1:200, Abcam plc, Cambridge, UK) for 2 h at room temperature. Cells were washed in PBS (3 × 10 min) before mounting. In control experiments, the primary antibody was omitted, and immunostaining was never observed. Neuro-2a cell fluorescence was studied using an LSM 710 META confocal laser scanning microscope (Carl Zeiss, Göttingen, Germany) equipped with an Ar laser with an effective power of 30 mW. The obtained images were analyzed using the ZEN 2.3 (blue edition) software (Carl Zeiss, Göttingen, Germany).

Test [2] addresses T1, hP2X7 (47–334 a.a., extracellular domain, 36.8 kDa) (Homo sapiens, UniProt Q99572).
T1 construct: hP2X7 (47–334 a.a., extracellular domain, 36.8 kDa); purchased Abbexa LTD, Cambridge, UK abx167020
T1 sequence (Q99572 47-334): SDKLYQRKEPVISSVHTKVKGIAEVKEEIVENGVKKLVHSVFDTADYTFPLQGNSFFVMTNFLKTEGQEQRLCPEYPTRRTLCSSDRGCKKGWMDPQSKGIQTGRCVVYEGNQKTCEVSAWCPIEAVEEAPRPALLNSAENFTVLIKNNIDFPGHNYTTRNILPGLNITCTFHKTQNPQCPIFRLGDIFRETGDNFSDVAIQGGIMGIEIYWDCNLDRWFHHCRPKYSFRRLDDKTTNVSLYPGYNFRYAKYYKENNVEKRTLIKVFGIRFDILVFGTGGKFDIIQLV
Put plainly: Surface plasmon resonance (Biacore 3000). Format: binding. As to the method:
SPR analysis was performed at 25 °C using a Biacore® 3000 optical biosensor (GE Healthcare, Chicago, IL, USA) and CM5 sensor chips. HBS-N (10 mM HEPES, 150 mM NaCl, pH 7.4) (Cytiva, Chicago, IL, USA) was used as a working buffer for the immobilization of hP2X7 (47–334 a.a., extracellular domain, 36.8 kDa) (abx167020 Abbexa LTD, Cambridge, UK). The carboxyl groups of the dextran biosensor chip were activated for 5 min by introducing a 1:1 mixture of 0.2 M 1-ethyl-3-(3-dimethylaminopropyl)carbodiimide hydrochloride (EDC) and 0.05 M N-hydroxysuccinimide (NHS) at a rate of 5 µL/min followed by a 1 min wash with HBS-N buffer at the same flow rate. Next, hP2X7 (15 μg/mL) in 10 mM sodium acetate (pH 5.0) was injected into the working channel of the biosensor for 10 min at a flow rate of 5 μL/min. The final level of immobilization was 12300 RU (12.3 ng of protein). The control channel without immobilized P2X7R was used to correct the effects of the nonspecific binding of analytes to the chip surface.
Lyophilized peptides were prepared as 100 μM stock solutions in HBS-N buffer. Experimental peptide samples were prepared in the range of 5–100 μM. The samples were injected through the channels of the biosensor (working and reference) at a flow rate of 10 μL/min for 6 min. The dissociation of the formed peptide/P2X7 complexes was recorded for at least 6 min from the moment of injection at the same flow rate after the injection of the sample. After each cycle of the biosensor, the bound analyte was removed by double injection of the regenerating solution (2 M NaCl, 1% CHAPS) at a flow rate of 30 μL/min for 30 s.
SPR sensorgrams were processed in Biacore 3000 Evaluation Software v.1.0 (GE Healthcare, Chicago, IL, USA) and BIAevaluation Software v. 4.1.1 (GE Healthcare, Chicago, IL, USA) using “1:1 binding (Langmuir)” and “two-state binding (conformational change)” data processing models.
The 1:1 (Langmuir) binding model is a 1:1 interaction model between a compound (C) and an immobilized protein (P) and is equivalent to the Langmuir isotherm for surface adsorption: C + P ↔ CP.
The two-state binding (conformational change) model describes the 1:1 binding of a compound (C) to an immobilized protein (P) followed by a conformational change in the complex (CP ↔ CP*). It is assumed that the conformationally changed complex can dissociate only by the reverse conformational change: C + P ↔ CP ↔ CP*. The final kinetic parameters were obtained from the models that best agree with the experimental curves for the minimum of the obtained value of chi2. The equations describing the models used are as follows: • (1) 1:1 (Langmuir) binding: Kd = koff/kon, where Kd is the equilibrium dissociation constant, koff is the dissociation rate constant, kon is the association rate constant. • (2) Reaction of two states (with conformational change): Kd = koff1/kon1 × (1 + kon2/koff2) − 1, where Kd is the equilibrium dissociation constant, koff1 is the dissociation rate constant, kon1 is the association rate constant, kon2 is the direct association rate constant for the CP ↔ transition CP*, koff2 is the inverse dissociation rate constant for the CP ↔ CP* transition.
The model describing the interaction was chosen according to the lowest chi2 parameter’s value. Chi2 is a measure of the average squared residual between the experimental data and the fitted curve.
In general terms: Surface plasmon resonance follows binding to a sensor surface in real time, without labels.

Setting [3] is: model: binding with two states (CP ↔ CP* transition), 25 °C, HBS-N pH 7.4, average ± SD, n = 3.
Setting [4] is: model: binding with two states, 25 °C, HBS-N pH 7.4, average ± SD, n = 3.

The term IC50 denotes the concentration that inhibits the measured activity by half. Usually Kd stands for the free concentration of one partner at which half of the binding sites on the other are occupied at equilibrium, for simple one-to-one binding. High values mean weaker binding, low ones tighter binding. For the sequence “RGICSEPKVVGPCKAGLRRFYYDSETGECKPFIYGGCKGNKNNFETLHACRGICRA (disulfide 4-54, 13-37, 29-50 (inferred)) [HCRG1]”, in test [1], the IC50 was 0.012 to 0.4 µM. The “amount of P2X7 in Neuro-2a cells” value with P2X7 in Neuro-2a cells is recorded as “significantly reduced the amount of P2X7 in Neuro-2a cells”. For the same sequence, the “decrease in P2X7 fluorescence” value in the test on P2X7 in Neuro-2a cells (mean ± SE, n = 3, p < 0.05) is given as 24.1 ± 3.2%. The “affinity to P2X7” value in test [2] (SPR, peptides 5–100 μM) is “highest affinity”. In test [2] (setting [3]), the koff2 entry is “(1.5 ± 0.20) × 10^−3 c^−1” and the kon2 result is listed as “(8.5 ± 1.0) × 10^−3 mole^−1c^−1”. Moreover, in test [2] (setting [4]), the koff1 entry is reported as “(4.37 ± 0.57) × 10^−2 c^−1” and the kon1 entry is “(9.20 ± 1.10) × 10^2 mole^−1c^−1”. In test [2] (model: binding with two states, 25 °C, HBS-N pH 7.4, n = 3), the Kd came out at 7.13 µM.
